One may read the pKi as the negative decadic logarithm of the Ki, by convention in mol/L.

The results in this text go back to patent US8598154B2 (Corcept Therapeutics, Inc., priority 2010, dated 2013).

In experiment [1] the target is T1, Human Recombinant Glucocorticoid Receptor (Homo sapiens, UniProt P04150).
T1 construct: This GR was a full-length steroid hormone receptor likely to be associated with heat-shock and other endogenous proteins; host or cells: baculovirus-infected insect cells
T1 sequence (P04150 1-777): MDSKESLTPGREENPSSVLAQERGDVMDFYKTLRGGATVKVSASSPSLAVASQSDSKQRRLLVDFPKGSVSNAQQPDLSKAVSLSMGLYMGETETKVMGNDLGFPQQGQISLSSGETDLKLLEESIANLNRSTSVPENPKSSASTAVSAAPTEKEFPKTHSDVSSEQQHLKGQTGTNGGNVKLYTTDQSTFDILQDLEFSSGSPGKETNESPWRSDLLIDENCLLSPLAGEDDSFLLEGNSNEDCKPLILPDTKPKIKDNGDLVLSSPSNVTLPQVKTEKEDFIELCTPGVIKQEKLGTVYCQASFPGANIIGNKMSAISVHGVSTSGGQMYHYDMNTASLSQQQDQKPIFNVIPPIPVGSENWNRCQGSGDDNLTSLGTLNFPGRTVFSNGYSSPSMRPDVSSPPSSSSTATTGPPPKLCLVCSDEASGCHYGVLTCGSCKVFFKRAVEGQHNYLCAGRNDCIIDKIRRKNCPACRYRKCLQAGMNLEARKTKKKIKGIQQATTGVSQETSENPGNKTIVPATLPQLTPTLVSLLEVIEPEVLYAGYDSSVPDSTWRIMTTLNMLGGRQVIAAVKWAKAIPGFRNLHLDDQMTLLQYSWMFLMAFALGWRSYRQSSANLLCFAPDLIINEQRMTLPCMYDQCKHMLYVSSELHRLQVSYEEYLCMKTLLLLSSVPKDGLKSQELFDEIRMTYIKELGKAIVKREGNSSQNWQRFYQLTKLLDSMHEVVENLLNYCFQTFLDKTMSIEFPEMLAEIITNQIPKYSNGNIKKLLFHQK
In words: Glucocorticoid receptor binding displacement assay with 3H-dexamethasone. To be noted: displacement of 2.5 nM 3H-dexamethasone; Ki from IC50 by Cheng-Prusoff; read-out: GR Binding Ki. The protocol: The source of the receptor was recombinant baculovirus-infected insect cells. This GR was a full-length steroid hormone receptor likely to be associated with heat-shock and other endogenous proteins.
For the Primary Screen, test compounds were tested at 1 μM in duplicate. These compounds were diluted from 10 mM stock in 100% DMSO. After dilution to 100 μM, 5 μl were added to 245 μl assay buffer to obtained 2 μM compound and 2% DMSO.
For the IC50 determinations, test compounds were tested at 6 concentrations in duplicate (concentration range depends on % inhibition binding that was obtained in the Primary Screen). Test compounds were diluted from 10 mM stock in 100% DMSO. The tested solutions were prepared at 2× final assay concentration in 2% DMSO/assay buffer.
All reagents and the assay plate were kept on ice during the addition of reagents. […] After the additions, the incubation mixture was mixed and incubated for 2.5 hrs at 4° C.
After 2.5 hrs incubation, unbound counts were removed with dextran coated charcoal (DCC) as follows: 25 μl of DCC solution (10% DCC in assay buffer) was added to all wells and mixed (total volume 225 μl). The plate was centrifuged at 4000 rpm for 10 minutes at 4° C. 75 μl of the supernatants (i.e.⅓ of total volume) was carefully pipetted into an optiplate. 200 μl of scintillation cocktail were added (Microscint-40, Packard Bioscience. B.V.). The plate was vigorously shaken for approx. 10 minutes and counted on Topcount.
The IC50 values were converted to Ki (the inhibition constant) using the Cheng-Prusoff equation. Test results are presented in Tablel.
Reagents: Assay buffer: 10 mM potassium phosphate buffer pH 7.6 containing 5 mM DTT, 10 mM sodium molybdate, 100 μM EDTA and 0.1% BSA.

The target in experiment [2] is T2, glucocorticoid receptors (GR) in SW1353/MMTV-5 cells (Homo sapiens, UniProt P04150).
T2 construct: contains endogenous glucocorticoid receptors; endogenous in cells; host or cells: SW1353/MMTV-5 (human chondrosarcoma, stably transfected with the pMAMneo-Luc reporter only)
T2 sequence (P04150 1-777): T1 sequence (P04150 1-777)
As to the kind of experiment: GR functional assay using SW1353/MMTV-5 cells (MMTV-luciferase reporter). It is filed as cell-based. The protocol:
SW1353/MMTV-5 is an adherent human chondrosarcoma cell line that contains endogenous glucocorticoid receptors. It was transfected with a plasmid (pMAMneo-Luc) encoding firefly luciferase located behind a glucocorticoid-responsive element (GRE) derived from a viral promoter (long terminal repeat of mouse mammary tumor virus). A stable cell line SW1353/MMTV-5 was selected with geneticin, which was required to maintain this plasmid.
SW1353/MMTV-5 cells were distributed in 96-well plates and incubated in medium (without geneticin) for 24 hrs (in the absence of CO2).
A general note: A reporter such as luciferase makes a cellular process visible.

Each structure is given as a SMILES string. pKi: −log10 of the molar value.

Regarding `O=S(=O)(c1ccc(N2CCC2)nc1)N1CCC2=Cc3c(cnn3-c3ccc(F)cc3)C[C@]2(COC(F)F)C1` [Example 17, (R)-6-(6-Azetidin-1-ylpyridine-3-sulfonyl)-4a-difluoromethoxymethyl-1-(4-fluorophenyl)-4,4a,5,6,7,8-hexahydro-1H-1,2,6-triazacyclopenta[b]naphthalene], the values for the pKi in experiment [1] and in experiment [2] were less than 9.00 and 7.30 to 8.00, respectively.

Regarding `COC[C@]12Cc3cnn(-c4ccc(F)cc4)c3C=C1CCN(S(=O)(=O)c1ccc(N3CCNCC3)nc1)C2` [Example 18, (R)-1-(4-Fluorophenyl)-4a-methoxymethyl-6-[[6-(1-piperazinyl)-3-pyridinyl]sulfonyl]-1,4,7,8-tetrahydro-1,2,6-triazacyclopenta[b]naphthalene], the negative logarithm of the Ki (pKi) in experiment [1] is less than 9.00; in experiment [2] it was less than 7.30.

Regarding `COC[C@]12Cc3cnn(-c4ccc(F)cc4)c3C=C1CCN(S(=O)(=O)c1ccc(N3CCN(C)CC3)nc1)C2` [Example 19, (R)-1-(4-Fluorophenyl)-4a-methoxymethyl-6-[[6-(1-(4-methylpiperazinyl))-3-pyridinyl]sulfonyl]-1,4,7,8-tetrahydro-1,2,6-triazacyclopenta[b]naphthalene], the negative logarithm of the Ki (pKi) in experiment [1] is less than 9.00; in experiment [2], less than 7.30.

Turning to `COC[C@]12Cc3cnn(-c4ccc(F)cc4)c3C=C1CCN(S(=O)(=O)c1ccc(N3CC[C@@H](F)C3)nc1)C2` [Example 20, (R)-1-(4-Fluorophenyl)-6-[6-((R)-3-fluoropyrrolidin-1-yl)-pyridine-3-sulfonyl]-4a-methoxymethyl-4,4a,5,6,7,8-hexahydro-1H-1,2,6-triaza-cyclopenta[b]naphthalene], the negative logarithm of the Ki (pKi) was less than 9.00 in experiment [1] and 7.30 to 8.00 in experiment [2].

With `COC[C@]12Cc3cnn(-c4ccc(F)cc4)c3C=C1CCN(S(=O)(=O)c1ccc(N3CC[C@@H](O)C3)nc1)C2` [Example 21, (R)-1-{5-[(R)-1-(4-Fluorophenyl)-4a-methoxymethyl-1,4,4a,5,6,7,8-hexahydro-1,2,6-triaza-cyclopenta[b]naphthalene-6-sulfonyl]-pyridin-2-yl}-pyrrolidin-3-ol], the negative-log Ki (pKi) in experiment [1] was less than 9.00; in experiment [2], less than 7.30.

Consider `COC[C@]12Cc3cnn(-c4ccc(F)cc4)c3C=C1CCN(S(=O)(=O)c1ccc(N3CC[C@H](O)C3)nc1)C2` [Example 22, (S)-1-{5-[(R)-1-(4-Fluorophenyl)-4a-methoxymethyl-1,4,4a,5,6,7,8-hexahydro-1,2,6-triaza-cyclopenta[b]naphthalene-6-sulfonyl]-pyridin-2-yl}-pyrrolidin-3-ol], for which the results for the pKi in experiment [1] and in experiment [2] were less than 9.00 and less than 7.30, respectively.

On to `COC[C@]12Cc3cnn(-c4ccc(F)cc4)c3C=C1CCN(S(=O)(=O)c1ccc(N3C[C@@H]4C[C@H]3CO4)nc1)C2` [Example 23, (R)-1-(4-Fluorophenyl)-4a-methoxymethyl-6-[(1S,4S)-6-(2-oxa-5-aza-bicyclo[2.2.1]hept-5-yl)pyridine-3-sulfonyl]-4,4a,5,6,7,8-hexahydro-1H-1,2,6-triaza-cyclopenta[b]naphthalene], for which the pKi in experiment [1] was less than 9.00; in experiment [2] it was less than 7.30.

With `COC[C@]12Cc3cnn(-c4ccc(F)cc4)c3C=C1CCN(S(=O)(=O)c1ccc(C(F)(F)F)nc1)C2` [Example 24, (R)-1-(4-Fluorophenyl)-4a-methoxymethyl-6-(6-trifluoromethylpyridine-3-sulfonyl)-4,4a,5,6,7,8-hexahydro-1H-1,2,6-triaza-cyclopenta[b]naphthalene], the pKi in experiment [1] was less than 9.00; in experiment [2] it was 7.30 to 8.00.

For the compound `O=S(=O)(c1ccc(N2CCCC2)nc1)N1CCC2=Cc3c(cnn3-c3ccc(F)cc3)C[C@]2(COCC2CC2)C1` [Example 25, (R)-4a-Cyclopropylmethoxymethyl-1-(4-fluorophenyl)-6-(6-pyrrolidin-1-yl-pyridine-3-sulfonyl)-4,4a,5,6,7,8-hexahydro-1H-1,2,6-triaza-cyclopenta[b]naphthalene], the values for the pKi in experiment [1] and in experiment [2] were 9.00 to 9.30 and more than 8.00, respectively.

Turning to `O=S(=O)(c1ccc(N2CC[C@@H](F)C2)nc1)N1CCC2=Cc3c(cnn3-c3ccc(F)cc3)C[C@]2(COCC2CC2)C1` [Example 26, (R)-4a-Cyclopropylmethoxymethyl-1-(4-fluorophenyl)-6-(6-((R)-3-fluoro-pyrrolidin-1-yl)-pyridine-3-sulfonyl)-4,4a,5,6,7,8-hexahydro-1H-1,2,6-triaza-cyclopenta[b]naphthalene], the negative logarithm of the Ki (pKi) is 9.00 to 9.30 in experiment [1] and more than 8.00 in experiment [2].

Turning to `O=S(=O)(c1ccc(N2CC[C@H](F)C2)nc1)N1CCC2=Cc3c(cnn3-c3ccc(F)cc3)C[C@]2(COCC2CC2)C1` [Example 27, (R)-4a-Cyclopropylmethoxymethyl-1-(4-fluorophenyl)-6-(6-((S)-3-fluoropyrrolidin-1-yl)-pyridine-3-sulfonyl)-4,4a,5,6,7,8-hexahydro-1H-1,2,6-triaza-cyclopenta[b]naphthalene], the figures for the negative logarithm of the Ki (pKi) in experiment [1] and in experiment [2] were 9.00 to 9.30 and more than 8.00, respectively.

Turning to `O=S(=O)(c1ccc(N2CC[C@@H](O)C2)nc1)N1CCC2=Cc3c(cnn3-c3ccc(F)cc3)C[C@]2(COCC2CC2)C1` [Example 28, (R)-1-{5-[(R)-4a-Cyclopropylmethoxymethyl-1-(4-fluorophenyl)-1,4,4a,5,6,7,8-hexahydro-1,2,6-triaza-cyclopenta[b]naphthalene-6-sulfonyl]pyridine-2-yl}-pyrrolidine-3-ol], the results for the pKi in experiment [1] and in experiment [2] were more than 9.30 and 7.30 to 8.00, respectively.

`O=S(=O)(c1ccc(N2CC[C@H](O)C2)nc1)N1CCC2=Cc3c(cnn3-c3ccc(F)cc3)C[C@]2(COCC2CC2)C1` [Example 29, (S)-1-{5-[(R)-4a-Cyclopropylmethoxymethyl-1-(4-fluorophenyl)-1,4,4a,5,6,7,8-hexahydro-1,2,6-triaza-cyclopenta[b]naphthalene-6-sulfonyl]pyridine-2-yl}-pyrrolidine-3-ol]: the pKi in experiment [1] was 9.00 to 9.30; in experiment [2] it was 7.30 to 8.00.

On to `O=S(=O)(c1ccc(N2CC(F)C2)nc1)N1CCC2=Cc3c(cnn3-c3ccc(F)cc3)C[C@]2(COCC2CC2)C1` [Example 30, (R)-4a-Cyclopropylmethoxymethyl-6-[6-(3-fluoroazetin-1-yl)-pyridine-3-sulfonyl]-1-(4-fluorophenyl)-1,4,4a,5,6,7,8-hexahydro-1H-1,2,6-triaza-cyclopenta[b]naphthalene], for which the pKi was more than 9.30 in experiment [1] and more than 8.00 in experiment [2].

Consider `O=S(=O)(c1ccc(N2CC(O)C2)nc1)N1CCC2=Cc3c(cnn3-c3ccc(F)cc3)C[C@]2(COCC2CC2)C1` [Example 31, 1-{5-[(R)-4a-Cyclopropylmethoxymethyl-1-(4-fluorophenyl)-1,4,4a,5,6,7,8-hexahydro-1,2,6-triaza-cyclopenta[b]naphthalene-6-sulfonyl]-pyridin-2-yl}-azetidin-3-ol], for which the negative-log Ki (pKi) in experiment [1] was 9.00 to 9.30; in experiment [2], 7.30 to 8.00.

As to `O=S(=O)(c1ccc(N2CCOCC2)nc1)N1CCC2=Cc3c(cnn3-c3ccc(F)cc3)C[C@]2(COCC2CC2)C1` [Example 32, (R)-4a-Cyclopropylmethoxymethyl-1-(4-fluorophenyl)-6-(6-morpholin-4-yl-pyridine-3-sulfonyl)-4,4a,5,6,7,8-hexahydro-1H-1,2,6-triaza-cyclopenta[b]naphthalene], the pKi in experiment [1] is 9.00 to 9.30; in experiment [2], more than 8.00.
